This note sets out measurements from US12723063B2, “GIPR-agonist compounds” (Eli Lilly and Company, priority 2019, dated 2026).

*1 amine or outer side, *2 acyl side, *3 side chain or, on linkers, in order; H or OH if unused. Where a SMILES comes first, the peptide text is derived from it. Side-chain parts run from the residue outwards. [ ]: non-standard residue; d: D form. The star is where a group is joined. C20 diacid = O=C(O)CCCCCCCCCCCCCCCCCCC(=O)*; C18 diacid = O=C(O)CCCCCCCCCCCCCCCCC(=O)*; γGlu = O=C(O)[C@H](CCC(=O)[*:2])N[*:1]; 4Pal = N[C@@H](Cc1ccncc1)C(=O)O; αMeL = CC(C)C[C@](C)(N)C(=O)O; Orn = NCCC[C@H](N)C(=O)O; AEEA = NCCOCCOCC(=O)O; Aib = CC(C)(N)C(=O)O

Common to all, as to assay: cAMP functional assay (HTRF) in HEK293 cells in presence of 0.1% casein
Holding throughout (format): cell-based
(In general: TR-FRET usually uses a lanthanide donor and a delayed reading to cut background.)

Experiment [1] deals with T1, human GLP-1 receptor (GLP-1R) (Homo sapiens, UniProt P43220).
T1 construct: expressed in transfected cells; host or cells: HEK293
The settings on record: HEK293 cells expressing human GLP-1R, geometric mean, read-out: hGLP1R cAMP Rel EC50 nM (SEM, n). The method, then: (§1) Each receptor over-expressing cell line (20 μl) is treated with the test peptide in DMEM (Gibco Cat #31053) supplemented with 0.1% Casein (Sigma Cat #C4765), 250 μM IBMX, 1× GlutaMAX™ (Gibco Cat #35050), and 20 mM HEPES (HyClone Cat #SH30237.01) in a 20 μl assay volume. After incubating for 60 minutes at room temperature, the resulting increase in intracellular CAMP is quantitatively determined using the CisBio CAMP Dynamic 2 HTRF Assay Kit (62AM4PEJ). The Lysis buffer containing cAMP-d2 conjugate (20 μl) and the antibody anti-cAMP-Eu3+-Cryptate (20 μl) are then added to determine the cAMP level. After incubating 60 minutes at room temperature, HTRF signal is detected with an Envision 2104 plate reader (PerkinElmer). Fluorescent emission at 620 nm and at 665 nm is measured and the ratio between 620 nm and at 665 nm is calculated and then are converted to nM cAMP per well using a cAMP standard curve. Dose response curves of compounds are plotted as the percentage of stimulation normalized to minimum (buffer only) and maximum (maximum concentration of each control ligand) values and analyzed using a four parameter non-linear regression fit with a variable slope (Genedata Screener 13). EC50 is the concentration of compound causing half-maximal simulation in a dose response curve. A relative EC50 value is derived by non-linear regression analysis using the percent maximal response vs, the concentration of peptide added, fitted to a four-parameter logistic equation.
(§2) Intracellular cAMP levels are determined by extrapolation using a standard curve. Dose response curves of compounds are plotted as the percentage of stimulation normalized to minimum (buffer only) and maximum (maximum concentration of each control ligand) values and analyzed using a four-parameter non-linear regression fit with a variable slope (Genedata Screener 13). EC50 is the concentration of compound causing half-maximal simulation in a dose response curve. Each relative EC50 value for the geometric mean calculation is determined from a curve fitting.
(§3) Concentration response curves of compounds are plotted as the percentage of stimulation normalized to minimum (buffer only) and maximum (maximum concentration of each control ligand) values and analyzed using a four-parameter non-linear regression fit with a variable slope (Genedata Screener 13). EC50 is the concentration of compound causing half-maximal simulation in a dose response curve. […] The standard error of the mean is reported:
(§4) [formula] • The log transform accounts for the EC50 values falling on a multiplicative, rather than an arithmetic scale.
(§5) For illustration, as shown by Example 1, the peptide is tested in 8 runs of the hGIPR CAMP assay. […] Accordingly, each Example will use the geometric mean of those values to normalize the Example assay runs.

For experiment [2], the target named is T2, human glucose-dependent insulinotropic peptide receptor (GIPR) (Homo sapiens, UniProt P48546).
T2 construct: expressed in transfected cells; host or cells: HEK293
T2 sequence (P48546 22-466): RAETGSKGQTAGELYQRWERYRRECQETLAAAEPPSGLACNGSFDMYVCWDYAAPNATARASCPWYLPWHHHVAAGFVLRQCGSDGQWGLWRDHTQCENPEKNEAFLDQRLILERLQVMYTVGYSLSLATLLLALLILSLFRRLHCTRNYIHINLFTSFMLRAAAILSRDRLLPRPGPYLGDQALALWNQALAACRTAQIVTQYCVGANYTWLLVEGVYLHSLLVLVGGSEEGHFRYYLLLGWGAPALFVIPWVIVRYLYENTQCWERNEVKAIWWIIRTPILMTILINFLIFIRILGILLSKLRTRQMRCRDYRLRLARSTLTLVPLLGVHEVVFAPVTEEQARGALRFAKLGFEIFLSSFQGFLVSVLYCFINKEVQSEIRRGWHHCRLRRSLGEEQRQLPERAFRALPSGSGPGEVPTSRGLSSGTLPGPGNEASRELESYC
As to conditions: HEK293 cells expressing human GIPR, geometric mean, read-out: hGIPR cAMP Rel EC50 nM (SEM, n). The method, then:
as §1, §2, §3, §4, §5

Experiment [3] deals with T3, human glucagon receptor (GcgR) (Homo sapiens, UniProt P47871).
T3 construct: expressed in transfected cells; host or cells: HEK293
The settings on record: HEK293 cells expressing human GcgR, geometric mean, read-out: hGcgR cAMP Rel EC50 nM (SEM, n). The method, then: as §1, §2, §3, §4, §5

T3 sequence (P47871 26-477): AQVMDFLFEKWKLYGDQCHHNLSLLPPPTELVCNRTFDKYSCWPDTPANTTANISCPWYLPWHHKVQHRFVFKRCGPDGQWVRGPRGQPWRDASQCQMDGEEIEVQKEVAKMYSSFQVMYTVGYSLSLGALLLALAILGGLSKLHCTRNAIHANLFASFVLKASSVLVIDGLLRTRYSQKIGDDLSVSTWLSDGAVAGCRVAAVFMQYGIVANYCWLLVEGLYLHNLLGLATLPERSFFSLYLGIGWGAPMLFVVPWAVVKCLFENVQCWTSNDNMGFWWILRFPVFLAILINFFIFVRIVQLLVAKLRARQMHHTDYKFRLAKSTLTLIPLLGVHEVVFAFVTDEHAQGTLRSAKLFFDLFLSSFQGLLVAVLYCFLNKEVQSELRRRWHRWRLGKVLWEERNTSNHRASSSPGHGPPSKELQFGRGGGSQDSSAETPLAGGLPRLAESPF
T1 sequence (P43220 24-463): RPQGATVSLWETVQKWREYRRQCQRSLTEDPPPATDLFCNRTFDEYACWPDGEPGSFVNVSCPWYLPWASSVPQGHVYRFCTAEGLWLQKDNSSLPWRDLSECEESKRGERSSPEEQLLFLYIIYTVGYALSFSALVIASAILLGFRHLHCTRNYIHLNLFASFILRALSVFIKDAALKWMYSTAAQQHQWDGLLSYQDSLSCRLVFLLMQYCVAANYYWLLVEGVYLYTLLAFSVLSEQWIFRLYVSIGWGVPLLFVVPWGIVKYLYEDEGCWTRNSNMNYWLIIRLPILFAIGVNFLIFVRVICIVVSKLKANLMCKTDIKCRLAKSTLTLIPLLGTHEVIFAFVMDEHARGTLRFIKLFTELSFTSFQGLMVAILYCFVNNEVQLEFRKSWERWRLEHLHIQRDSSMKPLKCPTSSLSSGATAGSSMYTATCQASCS

Usually EC50 stands for the concentration needed to bring the measured effect to its halfway point. In the case of `CC[C@H](C)[C@H](NC(=O)[C@H](Cc1ccccc1)NC(=O)[C@@H](NC(=O)CNC(=O)[C@H](CCC(=O)O)NC(=O)C(C)(C)NC(=O)[C@@H](N)Cc1ccc(O)cc1)[C@@H](C)O)C(=O)N[C@@H](CO)C(=O)N[C@@H](CC(=O)O)C(=O)N[C@@H](Cc1ccc(O)cc1)C(=O)N[C@@H](CO)C(=O)N[C@H](C(=O)N[C@@](C)(CC(C)C)C(=O)N[C@@H](CC(C)C)C(=O)N[C@@H](CC(=O)O)C(=O)N[C@@H](CCCN)C(=O)N[C@@H](CCCCNC(=O)COCCOCCNC(=O)COCCOCCNC(=O)CC[C@H](NC(=O)CCCCCCCCCCCCCCCCCCC(=O)O)C(=O)O)C(=O)N[C@@H](Cc1c[nH]cn1)C(=O)N[C@@H](CCC(N)=O)C(=O)NC(C)(C)C(=O)N[C@@H](CC(=O)O)C(=O)N[C@@H](Cc1ccccc1)C(=O)N[C@H](C(=O)N[C@@H](CCC(=O)O)C(=O)N[C@@H](Cc1ccncc1)C(=O)N[C@@H](CC(C)C)C(=O)N[C@@H](CC(C)C)C(=O)N[C@@H](CCC(=O)O)C(=O)N[C@@H](CCC(N)=O)C(=O)NCC(=O)N1CCC[C@H]1C(=O)N[C@@H](CO)C(=O)N[C@@H](CO)C(=O)NCC(=O)N[C@@H](C)C(=O)N1CCC[C@H]1C(=O)N1CCC[C@H]1C(=O)N1CCC[C@H]1C(=O)N[C@@H](CO)C(N)=O)C(C)C)[C@@H](C)CC` [Example 81] (H-Y[Aib]EGTFISDYSI[αMeL]LD[Orn]K([AEEA-AEEA-γGlu-C20 diacid])HQ[Aib]DFVE[4Pal]LLEQGPSSGAPPPS-NH2), the results for the EC50 in experiment [1], in experiment [2] and in experiment [3] were more than 5000 nM, 0.0282 nM and more than 5000 nM, respectively.

For `CC[C@H](C)[C@H](NC(=O)[C@H](CO)NC(=O)[C@H](Cc1ccc(O)cc1)NC(=O)[C@H](CC(=O)O)NC(=O)[C@H](CO)NC(=O)[C@@H](NC(=O)[C@H](Cc1ccccc1)NC(=O)[C@@H](NC(=O)CNC(=O)[C@H](CCC(=O)O)NC(=O)C(C)(C)NC(=O)[C@@H](N)Cc1ccc(O)cc1)[C@@H](C)O)[C@@H](C)CC)C(=O)N[C@@H](CC(C)C)C(=O)N[C@@H](CC(C)C)C(=O)N[C@@H](CC(=O)O)C(=O)N[C@@H](CCCCN)C(=O)N[C@@H](CCCCNC(=O)COCCOCCNC(=O)COCCOCCNC(=O)CC[C@H](NC(=O)CCCCCCCCCCCCCCCCC(=O)O)C(=O)O)C(=O)N[C@@H](Cc1c[nH]cn1)C(=O)N[C@@H](CCC(N)=O)C(=O)NC(C)(C)C(=O)N[C@@H](CC(=O)O)C(=O)N[C@@H](Cc1ccccc1)C(=O)N[C@H](C(=O)N[C@@H](CC(N)=O)C(=O)N[C@@H](Cc1ccc(O)cc1)C(=O)N[C@@H](CC(C)C)C(=O)N[C@@H](CC(C)C)C(=O)N[C@@H](C)C(=O)N[C@@H](C)C(=O)NCC(=O)N1CCC[C@H]1C(=O)N[C@@H](CO)C(=O)N[C@@H](CO)C(=O)NCC(=O)N[C@@H](C)C(=O)N1CCC[C@H]1C(=O)N1CCC[C@H]1C(=O)N1CCC[C@H]1C(=O)N[C@@H](CO)C(N)=O)C(C)C` [Example 31] (H-Y[Aib]EGTFISDYSILLDKK([AEEA-AEEA-γGlu-C18 diacid])HQ[Aib]DFVNYLLAAGPSSGAPPPS-NH2), the EC50 in experiment [1] is more than 5000 nM; in experiment [2], 0.0148 nM; in experiment [3], 1750 nM.

For `CC[C@H](C)[C@H](NC(=O)[C@H](CCCN)NC(=O)[C@H](CC(=O)O)NC(=O)[C@H](CC(C)C)NC(=O)[C@](C)(CC(C)C)NC(=O)[C@@H](NC(=O)[C@H](CO)NC(=O)[C@H](Cc1ccc(O)cc1)NC(=O)[C@H](CC(=O)O)NC(=O)[C@H](CO)NC(=O)[C@@H](NC(=O)[C@H](Cc1ccccc1)NC(=O)[C@@H](NC(=O)CNC(=O)[C@H](CCC(=O)O)NC(=O)C(C)(C)NC(=O)[C@@H](N)Cc1ccc(O)cc1)[C@@H](C)O)[C@@H](C)CC)[C@@H](C)CC)C(=O)N[C@@H](Cc1c[nH]cn1)C(=O)N[C@@H](CCC(N)=O)C(=O)NC(C)(C)C(=O)N[C@@H](CC(=O)O)C(=O)N[C@@H](Cc1ccccc1)C(=O)N[C@H](C(=O)N[C@@H](CCC(=O)O)C(=O)N[C@@H](Cc1ccncc1)C(=O)N[C@@H](CCCCNC(=O)COCCOCCNC(=O)COCCOCCNC(=O)CC[C@H](NC(=O)CCCCCCCCCCCCCCCCC(=O)O)C(=O)O)C(=O)N[C@@H](CC(C)C)C(=O)N[C@@H](CCC(=O)O)C(=O)NCC(=O)NCC(=O)N1CCC[C@H]1C(=O)N[C@@H](CO)C(=O)N[C@@H](CO)C(=O)NCC(=O)N[C@@H](C)C(=O)N1CCC[C@H]1C(=O)N1CCC[C@H]1C(=O)N1CCC[C@H]1C(=O)N[C@@H](CO)C(N)=O)C(C)C` [Example 111] (H-Y[Aib]EGTFISDYSI[αMeL]LD[Orn]IHQ[Aib]DFVE[4Pal]K([AEEA-AEEA-γGlu-C18 diacid])LEGGPSSGAPPPS-NH2), the figures for the EC50 in experiment [1], in experiment [2] and in experiment [3] were more than 5000 nM, 0.0065 nM and more than 5000 nM, respectively.

For `CC[C@H](C)[C@H](NC(=O)[C@H](CO)NC(=O)[C@H](Cc1ccc(O)cc1)NC(=O)[C@H](CC(=O)O)NC(=O)[C@H](CO)NC(=O)[C@@H](NC(=O)[C@H](Cc1ccccc1)NC(=O)[C@@H](NC(=O)CNC(=O)[C@H](CCC(=O)O)NC(=O)[C@@H](C)NC(=O)[C@@H](N)Cc1ccc(O)cc1)[C@@H](C)O)[C@@H](C)CC)C(=O)N[C@@H](CC(C)C)C(=O)N[C@@H](CC(C)C)C(=O)N[C@@H](CC(=O)O)C(=O)N[C@@H](CCCCN)C(=O)N[C@@H](CCCCNC(=O)COCCOCCNC(=O)COCCOCCNC(=O)CC[C@H](NC(=O)CCCCCCCCCCCCCCCCC(=O)O)C(=O)O)C(=O)N[C@@H](C)C(=O)N[C@@H](CCC(N)=O)C(=O)NC(C)(C)C(=O)N[C@@H](CC(=O)O)C(=O)N[C@@H](Cc1ccccc1)C(=O)N[C@H](C(=O)N[C@@H](CC(N)=O)C(=O)N[C@@H](Cc1c[nH]c2ccccc12)C(=O)N[C@@H](CC(C)C)C(=O)N[C@@H](CC(C)C)C(=O)N[C@@H](C)C(=O)NCC(=O)NCC(=O)N1CCC[C@H]1C(=O)N[C@@H](CO)C(=O)N[C@@H](CO)C(=O)NCC(=O)N[C@@H](C)C(=O)N1CCC[C@H]1C(=O)N1CCC[C@H]1C(=O)N1CCC[C@H]1C(=O)N[C@@H](CO)C(N)=O)C(C)C` [Example 19] (H-Y[dA]EGTFISDYSILLDKK([AEEA-AEEA-γGlu-C18 diacid])AQ[Aib]DFVNWLLAGGPSSGAPPPS-NH2), the EC50 is more than 5000 nM in experiment [1], 0.00992 nM in experiment [2] and more than 5000 nM in experiment [3].

For `CC[C@H](C)[C@H](NC(=O)[C@H](CO)NC(=O)[C@H](Cc1ccc(O)cc1)NC(=O)[C@H](CC(=O)O)NC(=O)[C@H](CO)NC(=O)[C@@H](NC(=O)[C@H](Cc1ccccc1)NC(=O)[C@@H](NC(=O)CNC(=O)[C@H](CCC(=O)O)NC(=O)[C@@H](C)NC(=O)[C@@H](N)Cc1ccc(O)cc1)[C@@H](C)O)[C@@H](C)CC)C(=O)N[C@@H](CC(C)C)C(=O)N[C@@H](CC(C)C)C(=O)N[C@@H](CC(=O)O)C(=O)N[C@@H](CCCCN)C(=O)N[C@@H](CCCCNC(=O)COCCOCCNC(=O)COCCOCCNC(=O)CC[C@H](NC(=O)CCCCCCCCCCCCCCCCCCC(=O)O)C(=O)O)C(=O)N[C@@H](Cc1c[nH]cn1)C(=O)N[C@@H](CCC(N)=O)C(=O)NC(C)(C)C(=O)N[C@@H](CC(=O)O)C(=O)N[C@@H](Cc1ccccc1)C(=O)N[C@H](C(=O)N[C@@H](CC(N)=O)C(=O)N[C@@H](Cc1c[nH]c2ccccc12)C(=O)N[C@@H](CC(C)C)C(=O)N[C@@H](CC(C)C)C(=O)N[C@@H](C)C(=O)N[C@@H](CCC(N)=O)C(=O)NCC(=O)N1CCC[C@H]1C(=O)N[C@@H](CO)C(=O)N[C@@H](CO)C(=O)NCC(=O)N[C@@H](C)C(=O)N1CCC[C@H]1C(=O)N1CCC[C@H]1C(=O)N1CCC[C@H]1C(=O)N[C@@H](CO)C(N)=O)C(C)C` [Example 9] (H-Y[dA]EGTFISDYSILLDKK([AEEA-AEEA-γGlu-C20 diacid])HQ[Aib]DFVNWLLAQGPSSGAPPPS-NH2), the EC50 in experiment [1] was more than 100 nM; in experiment [2], 0.165 nM; in experiment [3] it was more than 5000 nM.
